In brackets after ≈: the same amount, converted by molar mass.
Columns and labels:
Cheumatopsyche [1] = assay: Insecticidal activity against first-instar larvae of Cheumatopsyche brevilineata K after 48 hr; format: functional, organism-based
Cheumatopsyche [2] = assay: Ratio of EC50 for fifth-instar larvae of Cheumatopsyche brevilineata K to EC50 for first instar larvae of Cheumatopsyche brevilineata K; format: functional
Cheumatopsyche [3] = assay: Insecticidal activity against fifth-instar larvae of Cheumatopsyche brevilineata K after 48 hr; format: functional, organism-based
Cheumatopsyche [4] = assay: Ratio of EC50 for fifth-instar larvae of Cheumatopsyche brevilineata M to EC50 for first instar larvae of Cheumatopsyche brevilineata M; format: functional
Cheumatopsyche [5] = assay: Insecticidal activity against first-instar larvae of Cheumatopsyche brevilineata M after 48 hr; format: functional, organism-based
Cheumatopsyche [6] = assay: Insecticidal activity against fifth-instar larvae of Cheumatopsyche brevilineata M after 48 hr; format: functional, organism-based
Cheumatopsyche [7] = assay: Insecticidal activity against first to fifth instar larvae of Cheumatopsyche brevilineata K after 48 hr; format: functional, organism-based

SMILES | EC50 (Cheumatopsyche [1]) | Ratio EC50 (Cheumatopsyche [2]) | EC50 (Cheumatopsyche [3]) | Ratio EC50 (Cheumatopsyche [4]) | EC50 (Cheumatopsyche [5]) | EC50 (Cheumatopsyche [6]) | EC50 (Cheumatopsyche [7])
COP(=S)(OC)Oc1ccc([N+](=O)[O-])c(C)c1 [FENITROTHION] | 0.0261 µg/mL (≈ 0.0941 µM) | 28.4 | 0.741 µg/mL (≈ 2.67 µM) | 4.3 | 0.00623 µg/mL (≈ 0.0225 µM) | 0.0265 µg/mL (≈ 0.0956 µM) | 
CCC(C)c1ccccc1OC(=O)NC (stereo not given) [FENOBUCARB] | 0.00789 µg/mL (≈ 0.0381 µM) | 36.9 | 0.291 µg/mL (≈ 1.4 µM) | 10.3 | 0.00948 µg/mL (≈ 0.0457 µM) | 0.0919 µg/mL (≈ 0.443 µM) | 
O=[N+]([O-])/N=C1\NCCN1Cc1ccc(Cl)nc1 [IMIDACLOPRID] |  |  |  |  | 0.00664 µg/mL (≈ 0.026 µM) | 0.0379 µg/mL (≈ 0.148 µM) | 0.00654 µg/mL (≈ 0.0256 µM)

Reference: ChEMBL document CHEMBL3046892, “Sensitivity difference to insecticides of a riverine caddisfly, Cheumatopsyche brevilineata (Trichoptera: Hydropsychidae), depending on the larval stages and strains” (J Pestic Sci, 2009)
